One may read the MIC as the smallest concentration in the dilution series that meets the test's criterion for growth inhibition.

The test system of experiment [1] is nine gram-positive organisms and the yeast/fungus Candida. Description: MIC, broth dilution, over all organisms (Examples I/II). It counts as cell-based. The settings on record: for MIC: read-out: MIC range; for Inhibition in words: saturated acids, Table 1. The procedure:
(§1) In order to establish comparative bactericidal and fungicidal results with homologous fatty acids, a series of experiments was performed with thirty straight-chain fatty acids and derivatives thereof. Eight different gram-negative and twelve different gram-positive organisms, representing a very broad spectrum of organisms, were used in these experiments including the fungus Candida (a yeast). Additionally, fatty acids were chosen to show the effects of saturation versus unsaturation, in the fatty acid claim. Standard solutions of the fatty acids and their derivatives were prepared by first dissolving the weighed compounds in 1 to 2 ml of 95% ethanol and immediately pouring this solution into 200 ml of Tripticase Soy Broth. These lipid compounds which are insoluble in water and broth precipitated into very small crystals or droplets. The tubes containing the suspension were warmed to approximately 70° C and were then placed in an ultrasonic tank for further solubilization of the lipid derivatives.
(§2) Standard solutions (or suspensions) at 1,000 μg/ml were twofold serially diluted with additional broth to a concentration of 125 μg/ml. A 4-ml amount of each dilution was then quickly, and with constant agitation, dispensed into appropriately labeled screw-capped glass tubes (16 by 125 mm). The tubes were sterilized with steam at 15 psi for 15 minutes. After sterilization, all tubes were cooled and incubated overnight at 35° C to insure sterility.
(§3) All compounds were compared on a molar (micromoles/milliliter) rather than on a mass basis. In the following lists of organisms used, those followed by a parenthetical number are registered with the American Type Culture Collection (ATCC); the remainder were isolates from Providence Hospital or Northland Laboratory.
Staphylococcus aureus, S. epidermidis, beta-hemolytic streptococci (Group A and non-group A), group D streptococcus, Bacillus subtilis (6051), Sarcina lutea (9431), Micrococcus sp., Candida albicans, Nocardia asteroids (3308), Corynebacterium sp. (10700), and pneumococcus (63001).
(§4) One drop (0.04 ± 0.01 ml) of an 18-hr broth culture containing 10^7 and 10^9 organisms/ml was added to each dilution of the test compound, as well as to a tube of plain broth which served as the positive control. After inoculation, the contents of each tube were well mixed, and the tubes were incubated at 35° C in a 5% carbon dioxide + […] atmosphere.
(§5) The MIC is defined as the lowest concentration of compound at which no […] evidence of growth was observed when turbidity of the inoculated broth dilutions was compared with control tubes. […] Only a one-tube difference between the bactericidal and bacteriostatic concentrations was normally observed.
Table 5 presents a comparison of the C10 and C12 free acids and their glyceryl derivatives, and Table 6 gives the corresponding ranges of activity.
(§6) Standard solutions (1000 μg/ml) of three fatty acids and polyglycerol esters thereof were prepared as described in Example I. Also sucrose esters were prepared by transferring the weighed compounds (0.2 gm. dissolved in 1 ml absolute methanol) into 200 ml of sterile Trypticase Soy Broth (TSB). These standard solutions (1000 μg/ml) were twofold serially diluted with additional sterile broth to a concentration of 125 μg/ml. A 3.8 aliquot of each dilution was asceptically delivered into sterile screw-capped culture tubes. All tubes were incubated overnight at 36° C to insure sterility. The microorganisms used in this example were the same as those used in Example I.
The inoculum, 0.05 ml of an 13-24 hour TSB culture (approximately 10^9 organisms/ml) was asceptically delivered into all dilutions of the compounds, mixed well, and incubated at 36° C. […]
On the technique in general: Broth dilution looks for growth in wells or tubes with falling amounts of substance.

The subject of experiment [2] is Streptococcus Group A. Description: MIC, broth dilution (Examples I/II). The format is cell-based, beta-hemolytic streptococci Group A. The settings on record: group A Streptococci. On the procedure:
as §1, §2, §3, §4, §5, §6
The inoculum, 0.05 ml of an 13-24 hour TSB culture (approximately 10^9 organisms/ml) was asceptically delivered into all dilutions of the compounds, mixed well, and incubated at 36° C. A tube of inoculated broth without the compound served as a positive control and an uninoculated set of dilutions incubated along with the test dilutions, served as a negative control.
In those cases in which the test compound itself caused turbidity, an aliquot (0.015 ml) of the mixed broth was inoculated onto an agar plate and incubated at 36° C for examination, as described in Example I. The control procedure of Example I was also repeated. The lauric, capric, and oleic acids were used as internal controls and for comparison to Example I. The minimal inhibitory concentrations (μmole/ml) for the compounds studied are given in Tables 7 and 8.

[3] abbreviates: Table 4, range over the organisms of Table 3.
Where [4] appears, read: Table 2, range over the organisms of Table 1.

SMILES strings stand for the structures. In brackets after ≈: the same amount, converted by molar mass. Structures can show the parent of a compound that is named as a salt. Where two headings read alike, the source gives them in different places. Bounds are passed on as bounds.

As to `CCCCCCCCCCCCO` [Lauryl alcohol], the MIC in experiment [1] (setting [3]) is 67 to 5400 µM (≈ 12.5 to 1010 µg/mL).
For `CCCC/C=C\CCCCCCCC(=O)O` [Myristoleic], in experiment [1] (setting [4]), the MIC lay in the range of 55 to 552 µM (≈ 12.4 to 125 µg/mL).
For the compound `CCCCCCCCCCCCCC(=O)O` [Myristic], the MIC in experiment [1] lay in the range of 218 to 4370 µM (≈ 49.8 to 998 µg/mL).
For `CCCCCC/C=C\CCCCCCCC(=O)O` [Palmitoleic], the MIC in experiment [1] (setting [4]) was in the range of 24 to 983 µM (≈ 6.11 to 250 µg/mL).
As to `CCCCCCCCCCCC(=O)O` [Lauric acid, lauric acid], the MIC in experiment [2] (Bio Gel and Florisil used) was over 990 µM; in experiment [2] (filtered (laurate crystals removed)), 1000 µM (≈ 200 µg/mL); in experiment [2] (non-filtered broth), 125 µM (≈ 25 µg/mL); in experiment [1], 62 to 2490 µM (≈ 12.4 to 499 µg/mL). For the same compound, the “Effect of albumin on MIC” value in experiment [1] (Albumin (0.1%) added) is “had no effect on the determination of the MIC”. The MIC range is 0.062 to 2.49 µmol/mL in experiment [1] (setting [3]) and 0.062 - 2.49 μ/Mol/ml in experiment [1] (Table 6, range over the organisms of Table 5, NI = no inhibition). Also, in experiment [1], the Inhibition in words entry is “clearly the more active saturated acid”.
Take `CCCCCCCCCCCC(=O)N(C)C` [Lauryl N,N-dimethylamide]: the MIC in experiment [1] (setting [3]) lay in the range of 54 to 109 µM (≈ 12.3 to 24.8 µg/mL).
Turning to `CCCCCCCC/C=C\CCCCCCCC(=O)O` [Oleic acid], the Activity in words entry in experiment [1] (at the concentration tested) is given as “very limited activity”.
For `CCCCCC(=O)O` [Caproic, caproic acid], the Inhibition in words result in experiment [1] is given as “not inhibitory at all”.
As to `CCCCCCCCCCCCN` [Dodecylamine HCl], the MIC in experiment [1] is 28 to 112 µM.

The record behind these values is patent publication US4067997A, “Synergistic microbecidal composition and method” (priority 1976, dated 1978).
